Broadly, the inhibition is the relative decrease from the control value, in per cent. In general, Ki refers to the dissociation constant of the complex between target and ligand, obtained from inhibition or displacement.

For assay [1], the target named is T1, M-phase inducer phosphatase 2 (Homo sapiens) (UniProt P30305).
T1 sequence (whole entry): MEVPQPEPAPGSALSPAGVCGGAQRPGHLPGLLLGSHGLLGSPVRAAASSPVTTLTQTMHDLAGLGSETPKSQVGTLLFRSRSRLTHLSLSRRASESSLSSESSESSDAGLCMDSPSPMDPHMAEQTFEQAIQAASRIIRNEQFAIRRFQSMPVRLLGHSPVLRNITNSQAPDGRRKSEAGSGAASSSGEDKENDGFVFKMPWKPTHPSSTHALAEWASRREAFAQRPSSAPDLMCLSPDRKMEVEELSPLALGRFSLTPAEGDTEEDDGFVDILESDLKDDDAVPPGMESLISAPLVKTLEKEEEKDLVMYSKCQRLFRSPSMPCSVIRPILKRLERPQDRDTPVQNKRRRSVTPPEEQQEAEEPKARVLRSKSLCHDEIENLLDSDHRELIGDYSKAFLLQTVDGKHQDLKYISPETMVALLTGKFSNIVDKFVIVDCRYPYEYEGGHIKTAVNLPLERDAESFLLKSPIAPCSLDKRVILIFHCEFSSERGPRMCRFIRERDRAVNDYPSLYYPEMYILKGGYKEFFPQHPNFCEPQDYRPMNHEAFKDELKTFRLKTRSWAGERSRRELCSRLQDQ
Put plainly: Inhibition of recombinant human Cdc25B ([…] residues) using O-methylfluorescein phosphate as substrate at 1 to 30 uM by fluorescence assay. The note with it: dose 1-30 µM.

Assay [2] has as its target T1, M-phase inducer phosphatase 2 (Homo sapiens). The experiment in a line: Inhibition of recombinant human Cdc25B ([…] residues) using O-methylfluorescein phosphate as substrate at 1 to 500 uM by fluorescence assay. The note with it: dose 1-500 µM.
The target in assay [3] is T2, M-phase inducer phosphatase 2 (Homo sapiens, UniProt P30305).
T2 sequence (P30305 whole entry): T1 sequence (whole entry)
The experiment in a line: Competitive inhibition of recombinant human Cdc25B ([…] residues) assessed as hydrolysis of substrate O-methylfluorescein phosphate by Lineweaver-Burk plot analysis.

In assay [4] the target is T3, M-phase inducer phosphatase 1 (Homo sapiens) (UniProt P30304).
T3 sequence (whole entry): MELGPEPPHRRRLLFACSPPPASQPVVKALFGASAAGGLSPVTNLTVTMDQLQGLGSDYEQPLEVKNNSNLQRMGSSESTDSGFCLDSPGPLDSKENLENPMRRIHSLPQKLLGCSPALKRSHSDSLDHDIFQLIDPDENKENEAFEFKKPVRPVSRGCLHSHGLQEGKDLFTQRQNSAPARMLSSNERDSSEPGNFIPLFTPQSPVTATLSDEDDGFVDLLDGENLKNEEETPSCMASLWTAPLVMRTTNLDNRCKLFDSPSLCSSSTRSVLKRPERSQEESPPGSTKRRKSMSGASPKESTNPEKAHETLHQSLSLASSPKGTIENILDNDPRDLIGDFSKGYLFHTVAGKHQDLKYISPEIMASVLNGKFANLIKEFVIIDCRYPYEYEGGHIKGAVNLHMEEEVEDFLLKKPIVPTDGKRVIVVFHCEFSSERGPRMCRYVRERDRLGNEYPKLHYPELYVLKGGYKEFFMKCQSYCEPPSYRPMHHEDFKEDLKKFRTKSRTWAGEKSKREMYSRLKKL
The experiment in a line: Inhibition of Cdc25A (unknown origin) at 1 to 500 uM by fluorescence assay. The conditions noted are these: dose 1-500 µM.

Assay [5] has as its target T1, M-phase inducer phosphatase 2 (Homo sapiens). Put plainly: Inhibition of recombinant human Cdc25B ([…] residues) using O-methylfluorescein phosphate as substrate at 30 uM by fluorescence assay.
For assay [6], the target named is T3, M-phase inducer phosphatase 1 (Homo sapiens). Put plainly: Inhibition of Cdc25A (unknown origin) at 1 to 30 uM. The conditions noted are these: dose 1-30 µM.

Calls of active or inactive are those of the source. The calls are words filed in the database; no cut-off is given here.

For the compound `O=C(O)C[C@H](Nc1nc(O)nc(N[C@@H](Cc2c[nH]c3ccccc23)C(=O)O)n1)C(=O)O`, the inhibition result in assay [1] was “inactive”. As for `O=C(O)C[C@H](Nc1nc(NCCCC(=O)NCCCCCNc2nc(N[C@@H](CC(=O)O)C(=O)O)nc(N[C@@H](Cc3c[nH]c4ccccc34)C(=O)O)n2)nc(N[C@@H](Cc2ccc(O)cc2)C(=O)O)n1)C(=O)O`, the “inhibition (active/inactive)” value in assay [2] is “Active”. Moreover, the Ki in assay [3] was 2.6 µM. In addition, the inhibition entry in assay [4] is “inactive”. Further, in assay [5], the inhibition is 43%. Consider `O=C(O)C[C@H](Nc1nc(NCCCCCCCCCCNc2nc(N[C@@H](CC(=O)O)C(=O)O)nc(N[C@@H](Cc3c[nH]c4ccccc34)C(=O)O)n2)nc(N[C@@H](Cc2ccc(O)cc2)C(=O)O)n1)C(=O)O`, for which the inhibition result in assay [6] was “Active”. Also, the inhibition in assay [5] is 1.5%. Regarding `COC(=O)[C@H](CCCCN)Nc1nc(NCCCCCNC(=O)CCCNc2nc(N[C@@H](CCCCN)C(=O)OC)nc(N[C@@H](CCCCN)C(=O)OC)n2)nc(N[C@@H](CCCCN)C(=O)OC)n1`, the “inhibition (active/inactive)” value in assay [2] is “Active”. Take `C[C@H](Nc1nc(NCCCCCNC(=O)CCCNc2nc(N[C@@H](C)C(=O)O)nc(N[C@@H](C)C(=O)O)n2)nc(N[C@@H](C)C(=O)O)n1)C(=O)O`: the “inhibition (active/inactive)” value in assay [2] was “Active”. For the same compound, the inhibition result in assay [4] was “Active”. Consider `C[C@H](Nc1nc(NCCCCCNC(=O)CCCNc2nc(N[C@@H](CC(=O)O)C(=O)O)nc(N[C@@H](Cc3ccc(O)cc3)C(=O)O)n2)nc(N[C@@H](C)C(=O)O)n1)C(=O)O`, for which the “inhibition (active/inactive)” value in assay [2] is “Active”. With `O=C(O)C[C@H](Nc1nc(O)nc(N[C@@H](Cc2ccc(O)cc2)C(=O)O)n1)C(=O)O`, in assay [1], the inhibition result was “inactive”. Turning to `CC(C)C[C@H](Nc1nc(NCCCCCNC(=O)CCCNc2nc(N[C@@H](CC(=O)O)C(=O)O)nc(N[C@@H](Cc3ccc(O)cc3)C(=O)O)n2)nc(N[C@@H](C)C(=O)O)n1)C(=O)O`, the “inhibition (active/inactive)” value in assay [2] is “Active”. Also, in assay [4], the inhibition result is “inactive”.
